Assay results from PMC9046087, “Structural basis of tethered agonism of the adhesion GPCRs ADGRD1 and ADGRF1” (Nature, 2022).
Changes are numbered by the printed parent chain. pEC50: −log10 of the molar value. Ends that are not written are not given here.

Columns and labels:
Assay in all cases: BRET assay using TRUPATH biosensors, Gi activation of ADGRF1
Type in all cases: cell-based
ADGRF1 [1] = target: T1, ADGRF1 (Homo sapiens, UniProt Q5T601, L769A); conditions: ADGRF1 L769^5.61bA
T1 construct: Flag (N); expressed in transfected cells; host or cells: HEK293F
T1 sequence (Q5T601 20-910 L769A): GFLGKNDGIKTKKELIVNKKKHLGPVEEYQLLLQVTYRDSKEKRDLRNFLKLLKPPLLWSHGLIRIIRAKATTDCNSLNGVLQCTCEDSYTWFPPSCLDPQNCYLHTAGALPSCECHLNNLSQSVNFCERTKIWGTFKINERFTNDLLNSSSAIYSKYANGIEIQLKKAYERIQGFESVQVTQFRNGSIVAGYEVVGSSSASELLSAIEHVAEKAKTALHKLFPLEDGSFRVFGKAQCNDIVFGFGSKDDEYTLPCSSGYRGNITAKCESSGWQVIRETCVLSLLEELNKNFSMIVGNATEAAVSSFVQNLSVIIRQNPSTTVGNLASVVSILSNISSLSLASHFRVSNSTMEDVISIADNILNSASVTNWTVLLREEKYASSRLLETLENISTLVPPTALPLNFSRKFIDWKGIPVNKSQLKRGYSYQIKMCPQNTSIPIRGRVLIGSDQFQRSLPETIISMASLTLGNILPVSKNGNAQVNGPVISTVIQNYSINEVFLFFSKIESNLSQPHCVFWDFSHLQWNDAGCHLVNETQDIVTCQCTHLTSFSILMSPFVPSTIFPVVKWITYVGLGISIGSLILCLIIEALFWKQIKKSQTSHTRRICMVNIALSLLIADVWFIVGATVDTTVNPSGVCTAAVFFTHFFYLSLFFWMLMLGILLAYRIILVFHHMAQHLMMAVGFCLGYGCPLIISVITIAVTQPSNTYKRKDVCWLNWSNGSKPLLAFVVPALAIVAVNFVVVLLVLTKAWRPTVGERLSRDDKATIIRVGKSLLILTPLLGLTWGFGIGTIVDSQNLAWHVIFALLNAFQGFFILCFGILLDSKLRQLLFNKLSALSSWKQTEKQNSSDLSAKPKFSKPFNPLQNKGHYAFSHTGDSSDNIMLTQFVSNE
Outline: (§1)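 G protein activation by synthetic stalk peptides, read as GFP2-to-RLuc8 emission ratio from the fifth of five successive readings. Cells: HEK293F expressing receptor (WT or mutant) with GαsS-RLuc8 or Gαi1-RLuc8 plus Gβ3 and Gγ9-GFP2 (2:1:1:1). Pre-incubated 30 min at 37 °C; substrate coelenterazine 400a.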

ADGRF1 [2] = target: T2, ADGRF1 (Homo sapiens, UniProt Q5T601, M627A); conditions: ADGRF1 M627^2.50bA
T2 construct: Flag (N); expressed in transfected cells; host or cells: HEK293F
Outline: as §1

ADGRF1 [3] = target: T3, ADGRF1 (Homo sapiens, UniProt Q5T601, T589A); conditions: ADGRF1 T589^1.40bA
T3 construct: Flag (N); expressed in transfected cells; host or cells: HEK293F
Outline: as §1

ADGRF1 [4] = target: T4, ADGRF1 (Homo sapiens, UniProt Q5T601, V689A); conditions: ADGRF1 V689^ICL2A
T4 construct: Flag (N); expressed in transfected cells; host or cells: HEK293F
T4 sequence (Q5T601 20-910 V689A): T1 sequence (Q5T601 20-910 L769A) with V670A, A750L
Outline: as §1

ADGRF1 [5] = target: T5, ADGRF1 (Homo sapiens, UniProt Q5T601, V748A); conditions: ADGRF1 V748^5.40bA
T5 construct: Flag (N); expressed in transfected cells; host or cells: HEK293F
Outline: as §1

ADGRF1 [6] = target: T6, ADGRF1 (Homo sapiens, UniProt Q5T601, V761A); conditions: ADGRF1 V761^5.53bA, n = 3
T6 construct: Flag (N); expressed in transfected cells; host or cells: HEK293F
Outline: as §1

ADGRF1 [7] = target: T7, ADGRF1 (Homo sapiens, UniProt Q5T601, V765A); conditions: ADGRF1 V765^5.57bA
T7 construct: Flag (N); expressed in transfected cells; host or cells: HEK293F
Outline: as §1

[8] = n = 3, read-out: pEC50 (mean ± s.e.m.) (converted)

T2 sequence (Q5T601 20-910 M627A): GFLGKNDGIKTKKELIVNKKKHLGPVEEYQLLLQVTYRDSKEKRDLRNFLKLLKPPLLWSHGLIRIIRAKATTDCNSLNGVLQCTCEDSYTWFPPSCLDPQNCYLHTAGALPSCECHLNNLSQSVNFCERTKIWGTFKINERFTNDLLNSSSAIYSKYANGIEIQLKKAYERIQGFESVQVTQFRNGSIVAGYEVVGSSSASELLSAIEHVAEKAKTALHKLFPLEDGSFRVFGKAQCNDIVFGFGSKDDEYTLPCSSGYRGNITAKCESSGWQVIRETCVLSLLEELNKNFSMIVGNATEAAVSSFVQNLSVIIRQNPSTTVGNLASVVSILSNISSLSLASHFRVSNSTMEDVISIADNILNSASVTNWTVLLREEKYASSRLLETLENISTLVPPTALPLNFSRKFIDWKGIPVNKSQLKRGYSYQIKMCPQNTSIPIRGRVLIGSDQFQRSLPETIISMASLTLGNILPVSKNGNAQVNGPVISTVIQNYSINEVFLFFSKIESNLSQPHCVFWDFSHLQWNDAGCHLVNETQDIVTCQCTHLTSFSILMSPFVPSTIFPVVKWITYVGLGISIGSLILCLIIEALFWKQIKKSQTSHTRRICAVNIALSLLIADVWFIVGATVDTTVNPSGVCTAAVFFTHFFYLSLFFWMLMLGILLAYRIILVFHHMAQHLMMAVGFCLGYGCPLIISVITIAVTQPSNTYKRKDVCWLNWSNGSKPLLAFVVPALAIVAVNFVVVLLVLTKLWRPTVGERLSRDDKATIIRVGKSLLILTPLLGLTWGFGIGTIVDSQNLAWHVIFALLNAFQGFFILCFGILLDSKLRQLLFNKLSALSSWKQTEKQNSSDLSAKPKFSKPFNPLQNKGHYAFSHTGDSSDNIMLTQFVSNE
T5 sequence (Q5T601 20-910 V748A): as the sequence (Q5T601 20-910 M627A) above, with A608M, V729A counted along it
T3 sequence (Q5T601 20-910 T589A): as the sequence (Q5T601 20-910 M627A) above, with T570A, A608M counted along it
T6 sequence (Q5T601 20-910 V761A): as the sequence (Q5T601 20-910 M627A) above, with A608M, V742A counted along it
T7 sequence (Q5T601 20-910 V765A): as the sequence (Q5T601 20-910 M627A) above, with A608M, V746A counted along it

Question: TSFSILMSPFVP [pF1] was tested. Which “Emax (mean ± s.e.m.)” value (ADGRF1 [1]; n = 3) did it give?
Answer: 102 ± 12 % of WT

Question: What about the EC50 (ADGRF1 [1]; [8]) of the same sequence?
Answer: 302 nM

Question: What about the “Emax (mean ± s.e.m.)” value (ADGRF1 [2]; n = 3) of the same sequence?
Answer: 113 ± 8 % of WT

Question: And the EC50 (ADGRF1 [2]; [8])?
Answer: 692 nM

Question: And the “Emax (mean ± s.e.m.)” value (ADGRF1 [3]; n = 3)?
Answer: 114 ± 13 % of WT

Question: What about the EC50 (ADGRF1 [3]; [8]) of the same sequence?
Answer: 87.1 nM

Question: And the “Emax (mean ± s.e.m.)” value (ADGRF1 [4]; n = 3)?
Answer: 67 ± 7 % of WT

Question: And the EC50 (ADGRF1 [4]; [8])?
Answer: 263 nM

Question: And the “Emax (mean ± s.e.m.)” value (ADGRF1 [5]; n = 3)?
Answer: 85 ± 17 % of WT

Question: What about the EC50 (ADGRF1 [5]; [8]) of the same sequence?
Answer: 56.2 nM

Question: And the pEC50 (ADGRF1 [6])?
Answer: 5.79

Question: And the “Emax (mean ± s.e.m.)” value (ADGRF1 [6])?
Answer: 124 ± 22 % of WT

Question: And the “Emax (mean ± s.e.m.)” value (ADGRF1 [7]; n = 3)?
Answer: 92 ± 16 % of WT

Question: What about the EC50 (ADGRF1 [7]; [8]) of the same sequence?
Answer: 912 nM
